Reference: publication PMC11673057, “Unlocking Testosterone Production by Biotransformation: Engineering a Fungal Model of Aspergillus nidulans Strain Deficient in Steroid 11α-Hydroxylase Activity and Expressing 17β-Hydroxysteroid Dehydrogenase Enzyme as Proof of Concept” (Biomolecules, 2024)

Target: CYP68L1 (hydAN), steroid 11α-hydroxylase (Aspergillus nidulans, UniProt A0A6J3WXY1)
Assay: whole-cell fermentation of knockout strain expressing enzyme, HPLC
Assay type: cell-based
Conditions: 32 °C, 72 h; 11alpha-hydroxylation

CYP68L1 (hydAN), steroid 11α-hydroxylase, sequence (A0A6J3WXY1 entry or part of it): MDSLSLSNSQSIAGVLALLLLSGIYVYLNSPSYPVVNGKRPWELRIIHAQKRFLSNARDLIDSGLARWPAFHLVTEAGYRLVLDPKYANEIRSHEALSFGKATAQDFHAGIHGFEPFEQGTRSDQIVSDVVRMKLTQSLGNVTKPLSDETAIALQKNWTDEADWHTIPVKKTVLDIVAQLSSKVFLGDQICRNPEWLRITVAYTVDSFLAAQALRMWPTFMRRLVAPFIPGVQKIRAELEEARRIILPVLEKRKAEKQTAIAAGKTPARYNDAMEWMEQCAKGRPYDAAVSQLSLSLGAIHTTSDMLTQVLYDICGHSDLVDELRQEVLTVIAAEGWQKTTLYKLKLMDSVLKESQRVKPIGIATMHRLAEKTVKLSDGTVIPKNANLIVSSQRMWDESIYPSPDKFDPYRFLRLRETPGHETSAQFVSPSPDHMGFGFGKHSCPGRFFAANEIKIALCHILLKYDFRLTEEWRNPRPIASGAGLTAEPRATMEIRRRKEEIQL

With `C[C@]12CCC(=O)C=C1CC[C@@H]1[C@@H]2CC[C@]2(C)C(=O)CC[C@@H]12` [AD, androstenedione] the “whole-cell fermentation of knockout strain expressing enzyme, HPLC” value was “Hydroxylase activity was restored by expressing the hydAN gene encoding this CYP450 in the KOhydAN strain”.
